Source: PubChem BioAssay AID1963959 (Molecular Pharmacology Branch, DTP, NCI, 2024)
pIC50: −log10 of the molar value.

Test system: T-47D spheroids with HUVEC/MSC, viability
Test: Anticancer human tumor T-47D cell line growth inhibition [PI3K];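 further: spheroids exposed to agents for seven days before reading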;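 on viability, T/C: percent of DMSO vehicle control luminescence so 100% = untreated growth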
Details: for pIC50: curve of first compound; for viability, T/C: stronger effect = lower value
Method in brief: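 Three cell types, namely tumor cells, endothelial cells and mesenchymal stem cells, formed each spheroid. Combinations with four PI3K inhibitors were screened at clinically achievable concentrations decreasing by half-log, and spheroid viability was recorded.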

## CC(Cn1ccc(-c2ccc(C#N)c(Cl)c2)n1)NC(=O)c1cc(C(C)O)[nH]n1 (configuration not stated) + Cc1nc(NC(=O)N2CCCC2C(N)=O)sc1-c1ccnc(C(C)(C)C(F)(F)F)c1
Second compound 0.0316 µM
  pIC50: < 5.00
Second compound 0.1 µM
  pIC50: < 5.00
Second compound 0.316 µM
  pIC50: < 5.00
Second compound 1 µM
  pIC50: < 5.00
Second compound 3.16 µM
  pIC50: < 5.00
Second compound 10 µM
  pIC50: > 7.50
Second compound 0.0316 µM, first compound 0.0316 µM
  viability, T/C: 97%
Second compound 0.0316 µM, first compound 0.1 µM
  viability, T/C: 103%
Second compound 0.0316 µM, first compound 0.316 µM
  viability, T/C: 118%
Second compound 0.0316 µM, first compound 1 µM
  viability, T/C: 84%
Second compound 0.0316 µM, first compound 3.16 µM
  viability, T/C: 88.8%
Second compound 0.0316 µM, first compound 10 µM
  viability, T/C: 63.6%
Second compound 0.1 µM, first compound 0.0316 µM
  viability, T/C: 109%
Second compound 0.1 µM, first compound 0.1 µM
  viability, T/C: 88.2%
Second compound 0.1 µM, first compound 0.316 µM
  viability, T/C: 91.8%
Second compound 0.1 µM, first compound 1 µM
  viability, T/C: 90.9%
Second compound 0.1 µM, first compound 3.16 µM
  viability, T/C: 79.5%
Second compound 0.1 µM, first compound 10 µM
  viability, T/C: 67.9%
Second compound 0.316 µM, first compound 0.0316 µM
  viability, T/C: 100%
Second compound 0.316 µM, first compound 0.1 µM
  viability, T/C: 101%
Second compound 0.316 µM, first compound 0.316 µM
  viability, T/C: 93.8%
Second compound 0.316 µM, first compound 1 µM
  viability, T/C: 96.8%
Second compound 0.316 µM, first compound 3.16 µM
  viability, T/C: 85.7%
Second compound 0.316 µM, first compound 10 µM
  viability, T/C: 66.6%
Second compound 1 µM, first compound 0.0316 µM
  viability, T/C: 95.5%
Second compound 1 µM, first compound 0.1 µM
  viability, T/C: 95.8%
Second compound 1 µM, first compound 0.316 µM
  viability, T/C: 84.4%
Second compound 1 µM, first compound 1 µM
  viability, T/C: 87.6%
Second compound 1 µM, first compound 3.16 µM
  viability, T/C: 85%
Second compound 1 µM, first compound 10 µM
  viability, T/C: 63.2%
Second compound 3.16 µM, first compound 0.0316 µM
  viability, T/C: 82.8%
Second compound 3.16 µM, first compound 0.1 µM
  viability, T/C: 73.4%
Second compound 3.16 µM, first compound 0.316 µM
  viability, T/C: 61%
Second compound 3.16 µM, first compound 1 µM
  viability, T/C: 65.8%
Second compound 3.16 µM, first compound 3.16 µM
  viability, T/C: 63.1%
Second compound 3.16 µM, first compound 10 µM
  viability, T/C: 50.4%
Second compound 10 µM, first compound 0.0316 µM
  viability, T/C: 36%
Second compound 10 µM, first compound 0.1 µM
  viability, T/C: 42.3%
Second compound 10 µM, first compound 0.316 µM
  viability, T/C: 44.2%
Second compound 10 µM, first compound 1 µM
  viability, T/C: 45.5%
Second compound 10 µM, first compound 3.16 µM
  viability, T/C: 36.8%
Second compound 10 µM, first compound 10 µM
  viability, T/C: 37.9%
